Test results: ChEMBL document CHEMBL4308841, “Synthesis, in vitro antiproliferative activity, and kinase inhibitory effects of pyrazole-containing diarylureas and diarylamides” (Eur J Med Chem, 2018)

Experiments:
[1] = target: Tyrosine-protein kinase JAK2 (Homo sapiens) (UniProt O60674); assay: Inhibition of human JAK2 at 10 uM using poly[Glu:Tyr] (4:1) as substrate after 40 mins in presence of [gamma33P]ATP by scintillation counting method relative to control
[2] = tested on: HOP-92; assay: Growth inhibition of human HOP92 cells incubated for 48 hrs by sulforhodamine B assay; format: functional, cell-based; conditions: HOP-92, 48 h
[3] = tested on: MOLT-4; assay: Growth inhibition of human MOLT4 cells incubated for 48 hrs by sulforhodamine B assay; format: functional, cell-based; conditions: MOLT-4, 48 h
[4] = tested on: RAW264.7; assay: Cytotoxicity against mouse RAW264.7 cells by MTT assay; format: cell-based
[5] = tested on: COLO 205; assay: Growth inhibition of human COLO205 cells assessed as cell growth at 0.1 uM incubated for 48 hrs by sulforhodamine B assay relative to control; format: functional; conditions: COLO 205, 48 h, read-out: Activity
[6] = target: Receptor tyrosine-protein kinase erbB-4 (Homo sapiens) (UniProt Q15303); assay: Inhibition of human ERBB4 at 10 uM using poly[Glu:Tyr] (4:1) as substrate after 40 mins in presence of [gamma33P]ATP by scintillation counting method relative to control
[7] = target: Mitogen-activated protein kinase 8 (Homo sapiens) (UniProt P45983); assay: Inhibition of human JNK1 at 10 uM using ATF2 as substrate after 40 mins in presence of [gamma33P]ATP by scintillation counting method relative to control
[8] = target: RAF proto-oncogene serine/threonine-protein kinase (Homo sapiens) (UniProt P04049); assay: Inhibition of human c-RAF at 10 uM using MEK1 (K97R) as substrate after 40 mins in presence of [gamma33P]ATP by scintillation counting method relative to control
[9] = target: Hepatocyte growth factor receptor (Homo sapiens) (UniProt P08581); assay: Inhibition of human c-MET at 10 uM using KKKSPGEYVNIEFG as substrate after 40 mins in presence of [gamma33P]ATP by scintillation counting method relative to control
[10] = tested on: NCI/ADR-RES; assay: Growth inhibition of human NCI/ADR-RES cells assessed as cell growth at 100 uM incubated for 48 hrs by sulforhodamine B assay relative to control; format: functional; conditions: read-out: Activity
[11] = target: Mitogen-activated protein kinase 1 (Homo sapiens) (UniProt P28482); assay: Inhibition of human ERK2 at 10 uM using myelin basic protein as substrate after 40 mins in presence of [gamma33P]ATP by scintillation counting method relative to control
[12] = tested on: NCI-H226; assay: Growth inhibition of human NCI-H226 cells assessed as cell growth at 0.01 uM incubated for 48 hrs by sulforhodamine B assay relative to control; format: functional; conditions: NCI-H226, 48 h, read-out: Activity
[13] = tested on: HOP-92; assay: Growth inhibition of human HOP92 cells assessed as cell growth at 0.1 uM incubated for 48 hrs by sulforhodamine B assay relative to control; format: functional; conditions: HOP-92, 48 h, read-out: Activity
[14] = tested on: RPMI-8226; assay: Induction of apoptosis in human RPMI8226 cells assessed as increase in caspase 3/7 level; format: functional, cell-based
[15] = tested on: NCI-H322M; assay: Growth inhibition of human NCI-H322M cells assessed as cell growth at 100 uM incubated for 48 hrs by sulforhodamine B assay relative to control; format: functional; conditions: read-out: Activity
[16] = tested on: MDA-MB-231; assay: Growth inhibition of human MDA-MB-231 cells assessed as cell growth at 0.01 uM incubated for 48 hrs by sulforhodamine B assay relative to control; format: functional; conditions: MDA-MB-231, 48 h, read-out: Activity
[17] = tested on: IGROV-1; assay: Growth inhibition of human IGROV1 cells assessed as cell growth at 0.01 uM incubated for 48 hrs by sulforhodamine B assay relative to control; format: functional; conditions: IGROV-1, 48 h, read-out: Activity
[18] = tested on: SK-OV-3; assay: Growth inhibition of human SKOV3 cells assessed as cell growth at 100 uM incubated for 48 hrs by sulforhodamine B assay relative to control; format: functional; conditions: SK-OV-3, 48 h, read-out: Activity
[19] = target: Fibroblast growth factor receptor 1 (Homo sapiens) (UniProt P11362); assay: Inhibition of human FGFR1 at 10 uM using KKKSPGEYVNIEFG as substrate after 40 mins in presence of [gamma33P]ATP by scintillation counting method relative to control
[20] = tested on: SK-MEL-2; assay: Growth inhibition of human SK-MEL-2 cells assessed as cell growth at 1 uM incubated for 48 hrs by sulforhodamine B assay relative to control; format: functional; conditions: SK-MEL-2, 48 h, read-out: Activity
[21] = tested on: HCT-15; assay: Growth inhibition of human HCT15 cells assessed as cell growth at 0.1 uM incubated for 48 hrs by sulforhodamine B assay relative to control; format: functional; conditions: HCT-15, 48 h, read-out: Activity
[22] = target: Mast/stem cell growth factor receptor Kit (Homo sapiens) (UniProt P10721); assay: Inhibition of human c-KIT at 10 uM using poly[Glu:Tyr] (4:1) as substrate after 40 mins in presence of [gamma33P]ATP by scintillation counting method relative to control
[23] = tested on: HOP-92; assay: Growth inhibition of human HOP92 cells assessed as cell growth at 1 uM incubated for 48 hrs by sulforhodamine B assay relative to control; format: functional; conditions: HOP-92, 48 h, read-out: Activity
[24] = target: RAC-alpha serine/threonine-protein kinase (Homo sapiens) (UniProt P31749); assay: Inhibition of human AKT1 at 10 uM using KGSGSGRPRTSSFAEG as substrate after 40 mins in presence of [gamma33P]ATP by scintillation counting method relative to control
[25] = target: Dual specificity mitogen-activated protein kinase kinase 1 (Homo sapiens) (UniProt Q02750); assay: Inhibition of human MEK1 at 10 uM using ERK2 (K52R) as substrate after 40 mins in presence of [gamma33P]ATP by scintillation counting method relative to control
[26] = tested on: TK-10; assay: Growth inhibition of human TK10 cells incubated for 48 hrs by sulforhodamine B assay; format: functional, cell-based; conditions: TK-10, 48 h
[27] = target: Serine/threonine-protein kinase B-raf (Homo sapiens) (UniProt P15056); assay: Inhibition of human BRAF at 10 uM using MEK1 (K97R) as substrate after 40 mins in presence of [gamma33P]ATP by scintillation counting method relative to control
[28] = read-out: LC50 (the source's name)
[29] = read-out: pLC50 (the source's name) (converted)

Mast/stem cell growth factor receptor Kit (Homo sapiens), sequence (P10721 whole entry): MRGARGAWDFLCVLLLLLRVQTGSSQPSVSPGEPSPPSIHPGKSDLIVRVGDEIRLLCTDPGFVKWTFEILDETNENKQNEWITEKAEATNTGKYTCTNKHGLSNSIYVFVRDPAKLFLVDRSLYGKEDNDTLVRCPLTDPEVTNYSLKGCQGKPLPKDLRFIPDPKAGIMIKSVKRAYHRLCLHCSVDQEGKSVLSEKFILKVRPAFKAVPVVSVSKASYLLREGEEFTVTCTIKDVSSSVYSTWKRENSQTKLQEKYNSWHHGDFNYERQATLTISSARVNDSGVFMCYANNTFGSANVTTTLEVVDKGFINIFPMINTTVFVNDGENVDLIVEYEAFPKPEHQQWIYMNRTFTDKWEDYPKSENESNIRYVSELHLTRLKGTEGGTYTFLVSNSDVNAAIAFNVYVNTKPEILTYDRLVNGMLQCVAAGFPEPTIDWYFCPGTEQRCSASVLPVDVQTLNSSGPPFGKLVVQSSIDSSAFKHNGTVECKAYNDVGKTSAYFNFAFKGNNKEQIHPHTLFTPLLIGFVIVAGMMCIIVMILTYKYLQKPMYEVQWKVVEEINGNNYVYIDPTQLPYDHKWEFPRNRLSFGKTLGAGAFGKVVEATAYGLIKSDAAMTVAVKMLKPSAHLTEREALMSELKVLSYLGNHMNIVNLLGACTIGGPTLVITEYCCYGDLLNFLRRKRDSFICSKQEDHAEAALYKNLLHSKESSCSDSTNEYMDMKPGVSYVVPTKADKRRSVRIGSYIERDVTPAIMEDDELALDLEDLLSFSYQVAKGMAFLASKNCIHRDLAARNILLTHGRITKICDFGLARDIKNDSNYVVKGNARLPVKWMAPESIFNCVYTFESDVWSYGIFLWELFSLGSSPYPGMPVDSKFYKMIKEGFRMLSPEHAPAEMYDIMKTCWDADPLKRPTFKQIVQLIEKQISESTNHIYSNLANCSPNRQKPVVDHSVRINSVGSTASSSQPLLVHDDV
Serine/threonine-protein kinase B-raf (Homo sapiens), sequence (P15056 whole entry): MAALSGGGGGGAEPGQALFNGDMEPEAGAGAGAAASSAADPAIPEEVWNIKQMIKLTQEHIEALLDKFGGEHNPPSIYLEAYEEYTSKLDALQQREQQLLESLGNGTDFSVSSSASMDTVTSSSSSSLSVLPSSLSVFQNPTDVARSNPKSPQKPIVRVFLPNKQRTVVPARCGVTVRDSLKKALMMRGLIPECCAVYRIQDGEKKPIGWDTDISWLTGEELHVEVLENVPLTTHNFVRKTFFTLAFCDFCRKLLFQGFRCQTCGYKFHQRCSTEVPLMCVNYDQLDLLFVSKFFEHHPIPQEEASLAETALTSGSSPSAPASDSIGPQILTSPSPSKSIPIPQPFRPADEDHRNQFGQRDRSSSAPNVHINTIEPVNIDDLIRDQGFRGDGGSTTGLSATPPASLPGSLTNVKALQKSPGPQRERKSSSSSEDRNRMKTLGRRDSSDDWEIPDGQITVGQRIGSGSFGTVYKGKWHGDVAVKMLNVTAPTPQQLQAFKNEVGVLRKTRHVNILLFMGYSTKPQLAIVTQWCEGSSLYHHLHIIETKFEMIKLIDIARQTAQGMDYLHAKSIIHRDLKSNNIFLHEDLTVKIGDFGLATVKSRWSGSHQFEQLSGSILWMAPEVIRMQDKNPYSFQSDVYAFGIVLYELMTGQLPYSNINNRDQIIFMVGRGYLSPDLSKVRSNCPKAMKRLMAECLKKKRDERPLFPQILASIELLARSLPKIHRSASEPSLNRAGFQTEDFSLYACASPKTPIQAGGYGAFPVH
Receptor tyrosine-protein kinase erbB-4 (Homo sapiens), sequence (Q15303 whole entry): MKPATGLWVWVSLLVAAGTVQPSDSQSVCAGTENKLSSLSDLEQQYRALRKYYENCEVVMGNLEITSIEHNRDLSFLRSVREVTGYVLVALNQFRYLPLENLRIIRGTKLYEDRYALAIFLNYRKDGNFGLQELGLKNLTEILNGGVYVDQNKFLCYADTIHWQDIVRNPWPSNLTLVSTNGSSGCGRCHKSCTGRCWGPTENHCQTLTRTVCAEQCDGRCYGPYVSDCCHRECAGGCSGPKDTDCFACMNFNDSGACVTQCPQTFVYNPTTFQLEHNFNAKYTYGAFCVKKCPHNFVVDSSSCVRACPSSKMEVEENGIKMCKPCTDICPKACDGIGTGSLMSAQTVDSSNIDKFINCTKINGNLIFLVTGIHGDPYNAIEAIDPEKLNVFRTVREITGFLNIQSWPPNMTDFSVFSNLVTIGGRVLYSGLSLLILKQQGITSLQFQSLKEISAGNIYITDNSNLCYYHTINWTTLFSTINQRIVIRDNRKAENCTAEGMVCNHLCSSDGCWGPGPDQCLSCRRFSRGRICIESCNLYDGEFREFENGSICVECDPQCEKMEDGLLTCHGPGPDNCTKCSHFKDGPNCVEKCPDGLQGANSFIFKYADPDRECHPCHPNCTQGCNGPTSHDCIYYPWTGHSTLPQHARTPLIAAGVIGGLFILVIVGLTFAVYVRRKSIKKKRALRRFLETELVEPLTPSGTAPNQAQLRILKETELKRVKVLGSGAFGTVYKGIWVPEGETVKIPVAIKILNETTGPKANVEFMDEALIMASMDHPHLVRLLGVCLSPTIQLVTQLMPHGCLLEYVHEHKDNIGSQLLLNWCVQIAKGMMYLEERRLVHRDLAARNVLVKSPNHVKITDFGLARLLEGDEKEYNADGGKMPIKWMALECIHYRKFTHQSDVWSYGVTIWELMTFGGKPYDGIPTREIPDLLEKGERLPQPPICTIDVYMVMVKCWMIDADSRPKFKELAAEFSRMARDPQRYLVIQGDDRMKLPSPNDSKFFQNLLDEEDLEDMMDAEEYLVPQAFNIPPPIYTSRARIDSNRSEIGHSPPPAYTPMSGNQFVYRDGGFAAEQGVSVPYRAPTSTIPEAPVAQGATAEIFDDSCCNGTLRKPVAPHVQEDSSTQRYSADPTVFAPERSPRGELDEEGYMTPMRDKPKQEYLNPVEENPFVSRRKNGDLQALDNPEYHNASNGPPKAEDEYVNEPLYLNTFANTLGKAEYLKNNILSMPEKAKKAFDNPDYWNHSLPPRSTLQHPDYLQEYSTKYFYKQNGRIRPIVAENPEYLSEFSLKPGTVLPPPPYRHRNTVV
Hepatocyte growth factor receptor (Homo sapiens), sequence (P08581 whole entry): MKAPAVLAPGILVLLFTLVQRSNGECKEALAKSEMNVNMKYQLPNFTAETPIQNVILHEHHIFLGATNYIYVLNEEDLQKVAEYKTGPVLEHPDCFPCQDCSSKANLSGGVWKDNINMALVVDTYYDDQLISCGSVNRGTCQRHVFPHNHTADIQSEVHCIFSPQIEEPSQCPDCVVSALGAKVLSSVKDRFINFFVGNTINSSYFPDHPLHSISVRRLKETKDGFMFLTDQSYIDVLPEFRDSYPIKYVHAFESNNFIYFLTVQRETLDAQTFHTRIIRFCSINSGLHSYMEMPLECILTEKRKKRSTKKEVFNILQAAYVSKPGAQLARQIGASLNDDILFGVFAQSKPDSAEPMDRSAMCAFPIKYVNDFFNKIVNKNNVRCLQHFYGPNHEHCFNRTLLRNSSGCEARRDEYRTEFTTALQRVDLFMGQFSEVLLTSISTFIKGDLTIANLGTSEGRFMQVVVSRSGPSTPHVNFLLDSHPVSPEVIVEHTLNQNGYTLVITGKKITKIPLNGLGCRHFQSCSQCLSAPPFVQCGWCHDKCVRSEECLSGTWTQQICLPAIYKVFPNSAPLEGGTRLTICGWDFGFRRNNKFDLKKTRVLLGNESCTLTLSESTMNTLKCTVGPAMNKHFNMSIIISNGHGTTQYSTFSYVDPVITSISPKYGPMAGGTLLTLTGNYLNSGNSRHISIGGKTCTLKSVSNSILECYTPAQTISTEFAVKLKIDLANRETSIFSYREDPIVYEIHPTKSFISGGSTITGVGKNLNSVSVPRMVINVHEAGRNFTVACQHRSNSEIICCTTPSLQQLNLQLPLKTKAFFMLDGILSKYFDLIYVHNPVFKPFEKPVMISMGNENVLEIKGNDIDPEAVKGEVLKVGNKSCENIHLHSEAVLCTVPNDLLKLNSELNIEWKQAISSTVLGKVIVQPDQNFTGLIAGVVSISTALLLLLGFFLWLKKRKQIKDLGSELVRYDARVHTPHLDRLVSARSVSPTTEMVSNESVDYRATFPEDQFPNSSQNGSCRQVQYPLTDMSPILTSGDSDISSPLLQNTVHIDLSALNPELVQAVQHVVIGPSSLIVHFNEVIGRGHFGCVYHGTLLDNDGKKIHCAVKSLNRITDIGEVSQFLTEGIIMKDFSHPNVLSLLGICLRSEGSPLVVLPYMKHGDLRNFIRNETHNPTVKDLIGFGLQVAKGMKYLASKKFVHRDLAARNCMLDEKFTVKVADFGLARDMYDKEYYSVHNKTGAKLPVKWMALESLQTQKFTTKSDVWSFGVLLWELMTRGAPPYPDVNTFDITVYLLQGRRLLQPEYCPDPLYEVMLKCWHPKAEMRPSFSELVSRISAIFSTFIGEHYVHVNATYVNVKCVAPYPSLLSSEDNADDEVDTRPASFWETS
Mitogen-activated protein kinase 8 (Homo sapiens), sequence (P45983 whole entry): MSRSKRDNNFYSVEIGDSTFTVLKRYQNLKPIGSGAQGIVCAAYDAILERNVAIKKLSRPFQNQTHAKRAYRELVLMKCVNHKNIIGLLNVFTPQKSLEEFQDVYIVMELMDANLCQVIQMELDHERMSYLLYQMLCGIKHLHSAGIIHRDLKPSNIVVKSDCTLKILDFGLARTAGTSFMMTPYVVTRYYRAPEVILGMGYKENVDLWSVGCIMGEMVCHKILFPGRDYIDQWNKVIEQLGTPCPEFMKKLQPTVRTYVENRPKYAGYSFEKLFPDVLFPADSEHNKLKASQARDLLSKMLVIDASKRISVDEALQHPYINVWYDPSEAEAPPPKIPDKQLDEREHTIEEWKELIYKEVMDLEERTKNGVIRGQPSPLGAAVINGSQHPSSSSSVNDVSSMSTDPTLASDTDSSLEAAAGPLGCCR

Q: How did the inhibition [1] turn out when `COc1cc(Cl)cc(-c2nn(-c3cccc(NC(=O)Nc4cc(C(F)(F)F)cc(C(F)(F)F)c4)c3)cc2-c2ccncc2)c1` was run?
A: -2.88%

Q: And the IC50 [2]?
A: 230 nM

Q: What about the GI50 ([2]; read-out: GI50) of the same compound?
A: 228 nM

Q: What about the CC50 [2, 28] of the same compound?
A: 2010 nM

Q: And the TGI ([2]; read-out: TGI)?
A: 780 nM

Q: And the GI50 ([2]; read-out: pGI50 (converted))?
A: 229 nM

Q: What about the CC50 [2, 29] of the same compound?
A: 20000 nM

Q: And the TGI ([2]; read-out: pTGI (converted))?
A: 776 nM

Q: What about the IC50 [3] of the same compound?
A: 310 nM

Q: And the GI50 ([3]; read-out: GI50)?
A: 306 nM

Q: What about the CC50 [3, 28] of the same compound?
A: > 100000 nM

Q: And the TGI ([3]; read-out: TGI)?
A: 1640 nM

Q: What about the GI50 ([3]; read-out: pGI50 (converted)) of the same compound?
A: 302 nM

Q: What about the CC50 [3, 29] of the same compound?
A: > 100000 nM

Q: And the TGI ([3]; read-out: pTGI (converted))?
A: 1620 nM

Q: What about the IC50 [4] of the same compound?
A: > 100000 nM

Q: What about the growth at 0.1 µM [5] of the same compound?
A: 98%

Q: What about the inhibition [6] of the same compound?
A: 0.9%

Q: What about the inhibition [7] of the same compound?
A: 2.27%

Q: And the inhibition [8]?
A: 57.8%

Q: And the inhibition [9]?
A: 5.66%

Q: What about the growth at 100 µM [10] of the same compound?
A: -12%

Q: And the inhibition [11]?
A: -8.66%

Q: And the growth at 0.01 µM [12]?
A: 101%

Q: And the growth at 0.1 µM [13]?
A: 83%

Q: What about the EC50 [14] of the same compound?
A: 1520 nM

Q: And the growth at 100 µM [15]?
A: -78%

Q: And the growth at 0.01 µM [16]?
A: 97%

Q: And the growth at 0.01 µM [17]?
A: 103%

Q: What about the growth at 100 µM [18] of the same compound?
A: -73%

Q: And the inhibition [19]?
A: -1.71%

Q: And the growth at 1 µM [20]?
A: 40%

Q: What about the growth at 0.1 µM [21] of the same compound?
A: 90%

Q: What about the inhibition [22] of the same compound?
A: 1.25%

Q: And the growth at 1 µM [23]?
A: -10%

Q: What about the inhibition [24] of the same compound?
A: -5.92%

Q: And the inhibition [25]?
A: -7.99%

Q: And the IC50 [26]?
A: 680 nM

Q: And the GI50 ([26]; read-out: GI50)?
A: 654 nM

Q: What about the CC50 [26, 28] of the same compound?
A: 42.5 nM

Q: And the TGI ([26]; read-out: TGI)?
A: 14600 nM

Q: And the GI50 ([26]; read-out: pGI50 (converted))?
A: 708 nM

Q: And the CC50 [26, 29]?
A: 42700 nM

Q: And the TGI ([26]; read-out: pTGI (converted))?
A: 14800 nM

Q: And the inhibition [27]?
A: 39.1%
